# Source: patent US20230414638A1, “S[…] COMPOUNDS AS AMPK ACTIVATOR AND USES THEREOF” (SOCIETE DES PRODUITS NESTLE S.A., priority 2020, published 2023)
# Entries after “also recorded” stand apart in the source; their conditions may differ.
# Experiments:
# [1] = system: AMPK; assay: pACC HTRF assay (Cisbio) in U-2 OS Flp-In T-REx cells; format: cell-based; conditions: varying concentrations, 30 mins at 37 C
# Experimental: U-2 OS Flp-In T-REx cells were seeded at 50 K in a 96-well plate and left overnight at 37 C in DMEM GlutaMAX (Thermo Fisher Scientific) supplemented with 10% (vol/vol) FBS and 100 U/ml penicillin G, and 100 μg/ml streptomycin. Cells were treated for 30 mins with varying concentrations of Compound 1 in media lacking FBS and then cells were lysed in 50 μl of Cisbio lysis buffer #1 supplemented with blocking solution as per the manufacturer's protocol (Cisbio). Compound 1 is 2,4-dihydroxy-3-[(1R,6R)-3-methyl-6-prop-1-en-2-ylcyclohex-2-en-1-yl]-6-pentylbenzoic acid, also known as Cannabidiolic acid, CAS number: 1244-58-2.
# Cells were lysed for 30 mins at room temperature before 16 μl of lysate was incubated with 4 μl of the HTRF antibodies (1:40 dilution of the acceptor and donor (p)ACC antibodies, as per the manufacturers protocol). Lysates were incubated overnight with the antibodies before 665 nm/620 nm ratio was determined using a MolecularDevices i3 plate reader (with a HTRF cartridge add-on).
# [2] = system: AMPK β1 WT; assay: pACC HTRF assay in AMPKβ1/β2 double knockout U-2 OS cells stably expressing β1 WT; format: cell-based, human; conditions: AMPKβ1β2 double knockout cells stably expressing β1 WT, varying concentrations, 30 mins at 37 C
# Excerpt: (§1) A MPKβ1/β2 double knockout U-2 OS Flp-In™ T-Rex™ cell lines were generated by Horizon Discovery (Cambridge, UK). Cells were genotyped and analysed by western blotting to confirm that there was a complete knockout of AMPKβ1/β2. We took these AMPKβ1/β2 double knockout cells, and re-introduced the expression of human β1 wild-type (WT) or a β1 Serine 108 to alanine mutation (S108A). This was achieved using the Flp-In™ system (Invitrogen) present in this cell line and stable cells expressing β1 WT or a β1 S108A mutant were generated according to the manufacturers' protocols. Re-expression of the β1 subunit was confirmed by western blot analysis.
# (§2) Cells stably expressing β1 WT or a β1 S108A mutant were treated with varying concentrations of Compound 1 and subjected to the pACC HTRF (Cisbio) assay to determine the level of phosphorylation of the AMPK substrate, ACC, in cell lysates, as in example 1.
# We took AMPKβ1/β2 double knockout cells, and re-introduced the expression of human […] or β2 WT isoforms. […] Cells stably expressing β1 WT or β2 were treated with varying concentrations of compound 1 and subjected to the pACC HTRF (Cisbio) assay to determine the level of phosphorylation of the AMPK substrate, ACC, in cell lysates, as in example 1. […]
# [3] = system: ADaM-binding site AMPK mutant (β1 S108A); assay: pACC HTRF assay in AMPKβ1/β2 double knockout U-2 OS cells stably expressing β1 S108A mutant; format: cell-based, human; conditions: AMPKβ1β2 double knockout cells stably expressing β1 S108A mutant, varying concentrations, 30 mins at 37 C
# Excerpt: as §1, §2
# [4] = system: β2-containing AMPK complexes; assay: pACC HTRF assay in AMPKβ1/β2 double knockout U-2 OS cells stably expressing β2 WT; format: cell-based, human; conditions: AMPKβ1β2 double knockout cells stably expressing β2 WT, varying concentrations, 30 mins at 37 C
# Experimental: We took AMPKβ1/β2 double knockout cells, and re-introduced the expression of human […] or β2 WT isoforms. […] Cells stably expressing β1 WT or β2 were treated with varying concentrations of compound 1 and subjected to the pACC HTRF (Cisbio) assay to determine the level of phosphorylation of the AMPK substrate, ACC, in cell lysates, as in example 1. […] This activation profile is characteristic of activators that bind to the ADaM site and consistent with previous studies showing that ADaM-site activators have poorer activation of β2-containing complexes in vitro and in cells.
# [5] = system: primary mouse hepatocytes; assay: Lipogenesis ([1-14C]-acetate incorporation into fatty acids) in primary hepatocytes; format: cell-based; conditions: varying concentrations, 1 h at 37 C
# Experimental: Hepatocyte isolation: The liver was first perfused with 50 ml perfusion buffer (Krebs-Hepes buffer with […] EDTA), followed with 50 ml collagenase A buffer (Krebs-Hepes buffer with 5 mM CaCl2) and 0.5 mg/ml collagenase). After passage through a 100 μm mesh, the cell solution was washed several times with cold media and finally the cell culture pellet was resuspended in culture medium (medium 199 (M199)+GlutaMAX, 100 U/ml penicillin G, and 100 μg/ml streptomycin, 0.1% (wt/vol) BSA, 10% FCS, 10 nM insulin, 200 nM triiodothyronine and 500 nM dexamethasone). Hepatocytes were left to attach (3-4 h) and cultured overnight in M199 supplemented with antibiotics and 100 nM dexamethasone. Cells were used for experiments the following morning.
# For lipogenesis measurements in primary hepatocytes, cells were seeded at 600 K cells per well in a 6-well plate overnight. Media was replaced with fresh M199 media alone for 2 hours prior to incubation with varying concentrations of compound 1 for 1 h at 37 C, in the presence of [1-14C]-acetate. The incorporation of [14C] into fatty acids was determined in the lower organic layer after separation from the aqueous phase.
smiles,measurement,setting,value
"C=C(C)[C@@H]1CCC(C)=C[C@H]1c1c(O)cc(CCCCC)c(C(=O)O)c1O [Compound 1, 2,4-dihydroxy-3-[(1R,6R)-3-methyl-6-prop-1-en-2-ylcyclohex-2-en-1-yl]-6-pentylbenzoic acid]",Phosphorylation of ACC (fold increase in activation),[1],"increased the phosphorylation of the AMPK substrate, acetyl-CoA carboxylase (ACC); also recorded: increases the phosphorylation of the AMPK substrate, ACC, in a dose-dependent manner"
same,Phosphorylation of ACC (fold increase in activation),[2],able to dose-dependently increase pACC
same,Phosphorylation of ACC (fold increase in activation),[3],did not activate AMPK; also recorded: not able to increase pACC
same,Phosphorylation of ACC (fold increase in activation),[4],impaired activation of AMPK; also recorded: impaired ability of compound 1 to increase pACC
same,Lipogenesis (percentage compared to the no treatment control),[5],dose-dependent inhibition of lipogenesis; also recorded: able to inhibit lipogenesis in a dose-dependent manner
